In ChEMBL document CHEMBL1201862, “PubChem BioAssay data set” (2004):
Calls of active or inactive are those of the source.

How the values were obtained:
[1] = biological target: T1, Short transient receptor potential channel 4 (Mus musculus, UniProt Q9QUQ5); assay: block of DAMGO-driven TRPC4 calcium entry – cell-based, HEK293 TRPC4/mu-opioid, Fluo-4 calcium, dose response (AID 434942); format: functional;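 also: potency of inhibitors blocking the TRPC4 calcium response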
T1 sequence (Q9QUQ5 whole entry): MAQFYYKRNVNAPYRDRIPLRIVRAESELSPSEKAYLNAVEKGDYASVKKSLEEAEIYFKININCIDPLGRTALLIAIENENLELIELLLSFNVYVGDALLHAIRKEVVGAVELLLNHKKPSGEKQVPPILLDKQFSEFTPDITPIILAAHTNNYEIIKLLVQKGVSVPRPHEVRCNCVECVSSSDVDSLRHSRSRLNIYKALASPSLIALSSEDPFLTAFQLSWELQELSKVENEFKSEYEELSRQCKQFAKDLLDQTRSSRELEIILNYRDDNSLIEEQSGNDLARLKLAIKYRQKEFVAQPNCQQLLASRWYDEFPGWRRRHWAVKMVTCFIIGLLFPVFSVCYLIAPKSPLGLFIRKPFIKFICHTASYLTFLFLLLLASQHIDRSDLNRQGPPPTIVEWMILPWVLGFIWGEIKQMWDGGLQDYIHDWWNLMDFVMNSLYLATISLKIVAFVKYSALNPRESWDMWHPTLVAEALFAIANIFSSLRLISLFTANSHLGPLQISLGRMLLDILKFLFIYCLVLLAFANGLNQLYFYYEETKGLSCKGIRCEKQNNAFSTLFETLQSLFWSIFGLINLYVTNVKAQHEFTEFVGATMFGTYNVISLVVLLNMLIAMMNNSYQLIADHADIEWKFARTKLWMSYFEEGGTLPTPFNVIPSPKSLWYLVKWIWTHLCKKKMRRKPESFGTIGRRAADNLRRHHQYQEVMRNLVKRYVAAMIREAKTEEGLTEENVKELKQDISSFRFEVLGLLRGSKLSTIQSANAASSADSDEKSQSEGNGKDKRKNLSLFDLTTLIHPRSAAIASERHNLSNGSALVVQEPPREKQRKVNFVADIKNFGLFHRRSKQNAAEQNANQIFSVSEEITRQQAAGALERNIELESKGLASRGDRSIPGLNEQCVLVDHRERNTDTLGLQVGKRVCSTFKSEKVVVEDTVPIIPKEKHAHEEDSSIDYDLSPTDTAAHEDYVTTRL

[2] = biological target: T2, Calpain-2 catalytic subunit (Sus scrofa, UniProt P43367); assay: m-calpain protease blockers, concentration series – biochemical, fluorogenic peptide substrate, dose response (AID 1420); format: functional
T2 sequence (P43367 whole entry): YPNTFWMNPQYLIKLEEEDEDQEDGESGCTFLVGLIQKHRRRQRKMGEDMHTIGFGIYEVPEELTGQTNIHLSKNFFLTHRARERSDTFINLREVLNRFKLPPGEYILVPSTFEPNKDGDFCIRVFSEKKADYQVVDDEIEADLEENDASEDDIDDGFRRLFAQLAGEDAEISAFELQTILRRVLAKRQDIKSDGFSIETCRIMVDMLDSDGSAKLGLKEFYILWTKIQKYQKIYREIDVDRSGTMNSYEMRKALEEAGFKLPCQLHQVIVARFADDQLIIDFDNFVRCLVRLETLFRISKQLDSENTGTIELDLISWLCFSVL

[3] = biological target: T3, Lysosomal acid glucosylceramidase (Homo sapiens, UniProt P04062); assay: Dose response cell-based high throughput screening assay to identify enhancers of beta-glucosidase activity. [Related pubchem assays: 784 ]; format: functional
T3 sequence (P04062 whole entry): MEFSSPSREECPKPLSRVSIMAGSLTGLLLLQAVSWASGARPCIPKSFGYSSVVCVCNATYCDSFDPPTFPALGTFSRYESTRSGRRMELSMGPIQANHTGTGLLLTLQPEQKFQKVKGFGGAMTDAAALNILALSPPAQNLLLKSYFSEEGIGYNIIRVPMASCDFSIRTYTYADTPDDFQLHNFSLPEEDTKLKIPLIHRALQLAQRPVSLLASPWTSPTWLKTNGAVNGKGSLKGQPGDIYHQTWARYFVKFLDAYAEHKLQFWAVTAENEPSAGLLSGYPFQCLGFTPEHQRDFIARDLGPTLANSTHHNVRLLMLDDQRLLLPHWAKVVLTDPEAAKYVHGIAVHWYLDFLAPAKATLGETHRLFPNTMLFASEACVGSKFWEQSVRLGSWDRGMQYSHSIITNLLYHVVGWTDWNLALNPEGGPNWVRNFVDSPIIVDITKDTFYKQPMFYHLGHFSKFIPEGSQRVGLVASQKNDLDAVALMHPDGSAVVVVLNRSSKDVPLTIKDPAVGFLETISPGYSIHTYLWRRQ

[4] = biological target: Nonstructural protein 1 (Influenza A virus, UniProt Q194T2); format: functional, Influenza A virus (A/California/07/2009(H1N1))
[5] = biological target: T4, DNA repair protein RAD52 homolog (Homo sapiens, UniProt P43351); format: functional, biochemical
T4 sequence (P43351 whole entry): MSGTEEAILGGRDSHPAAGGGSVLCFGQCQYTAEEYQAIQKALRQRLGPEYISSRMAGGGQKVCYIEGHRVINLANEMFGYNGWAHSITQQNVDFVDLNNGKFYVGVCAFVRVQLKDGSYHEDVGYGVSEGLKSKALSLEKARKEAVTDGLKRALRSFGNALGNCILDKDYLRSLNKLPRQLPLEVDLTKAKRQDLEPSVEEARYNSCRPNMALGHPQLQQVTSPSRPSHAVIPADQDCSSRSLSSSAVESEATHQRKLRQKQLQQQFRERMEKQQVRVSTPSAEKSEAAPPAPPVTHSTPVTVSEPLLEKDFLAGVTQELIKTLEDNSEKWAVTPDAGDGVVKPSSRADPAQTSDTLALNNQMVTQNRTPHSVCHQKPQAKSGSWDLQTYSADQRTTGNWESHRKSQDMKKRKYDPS

[6] = biological target: T5, Ubiquitin-conjugating enzyme E2 N (Homo sapiens, UniProt P61088); format: functional;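 also: Dose-response confirmation in a TR-FRET assay detecting UBC13-driven polyubiquitin chain formation, inhibition measured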
T5 sequence (P61088 whole entry): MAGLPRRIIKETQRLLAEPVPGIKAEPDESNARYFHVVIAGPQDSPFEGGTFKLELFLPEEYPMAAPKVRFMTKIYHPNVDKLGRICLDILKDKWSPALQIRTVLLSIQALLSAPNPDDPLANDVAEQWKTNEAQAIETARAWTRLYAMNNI

[7] = viability of uninfected HEp-2 cells – cell-based, HTS, cytotoxicity control for RSV inhibitor project, dose response (AID 2410); format: functional; details: human respiratory syncytial virus
[8] = cells
[9] = tested on: Vero; assay: cells; format: functional; details: Chlorocebus sabaeus
[10] = tested on: Vero; assay: cells; format: functional, cell-based; details: Chlorocebus sabaeus
[11] = biological target: Peroxisome proliferator-activated receptor gamma/Nuclear receptor coactivator 1 (Homo sapiens, UniProt P37231); assay: TR-FRET dose response biochemical High Throughput Screening assay for agonists of the steroid receptor coactivator 1 (SRC-1) recruitment by the peroxisome proliferator-activated receptor gamma (PPAR gamma): non-selective agonists. [Related pubchem assays (depositor defined):AID1300, AID1808, AID504735, AID631]; format: protein assay
[12] = biological target: Peroxisome proliferator-activated receptor gamma/Nuclear receptor coactivator 3 (Homo sapiens, UniProt P37231); assay: TR-FRET dose response biochemical High Throughput Screening assay for agonists of the steroid receptor coactivator 3 (SRC-3) recruitment by the peroxisome proliferator-activated receptor gamma (PPAR gamma): non-selective agonists. [Related pubchem assays: 1301 (Confirmation screen.), 1048 (Primary screen.)]; format: functional
[13] = biological target: Peroxisome proliferator-activated receptor gamma/Nuclear receptor coactivator 2 (Homo sapiens, UniProt P37231); assay: TR-FRET dose response biochemical High Throughput Screening assay for agonists of the steroid receptor coactivator 2 (SRC-2) recruitment by the peroxisome proliferator-activated receptor gamma (PPAR gamma): non-selective agonists. [Related pubchem assays: 1297, 1032 ]; format: functional
[14] = biological target: Cytochrome P450 3A4 (Homo sapiens, UniProt P08684); details: Potency;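 also: confirmatory qHTS run detecting inhibitors and substrates of CYP3A4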
[15] = HEK-293T viability loss after treatment – luminescence, T-cell screen hits, cytotoxicity control for TCR NF-kB inhibitor project, dose response (AID 489026); format: functional, cell-based;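 also: cells exposed to compound about 14 hours before the viability readout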
[16] = biological target: Cytochrome P450 2C19 (Homo sapiens, UniProt P33261); assay: Cytochrome panel assay with activity outcomes. Panel member name: p450-cyp2c19 Compounds with AC50 equal or less than 10 uM are considered active; format: functional
[17] = biological target: SUMO-activating enzyme (Homo sapiens, UniProt Q9UBT2); assay: blockers of SAE1/SAE2–UBC9 SUMO transfer – biochemical, HTRF, uHTS, primary screen (AID 2006); format: protein-complex assay
[18] = biological target: Trypsin (Sus scrofa, UniProt P00761); assay: trypsin protease activity blockade – biochemical, quenched peptide fluorescence, cherry-pick, selectivity assay for Rce1 protease inhibitor project, dose response (AID 488789)
[19] = biological target: T6, Heat shock factor protein 1 (Mus musculus, UniProt P38532); assay: decrease of HSF1-responsive luciferase luminescence – cell-based, NIH3T3, dose retest, confirmation (AID 2382); format: functional;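 also: NIH3T3 fibroblasts with HSF1-driven luciferase reporter stressed by proteasome inhibitor MG132; luminescence from HSF1-driven luciferase expression after 8 hours of MG132 stress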
T6 sequence (P38532 whole entry): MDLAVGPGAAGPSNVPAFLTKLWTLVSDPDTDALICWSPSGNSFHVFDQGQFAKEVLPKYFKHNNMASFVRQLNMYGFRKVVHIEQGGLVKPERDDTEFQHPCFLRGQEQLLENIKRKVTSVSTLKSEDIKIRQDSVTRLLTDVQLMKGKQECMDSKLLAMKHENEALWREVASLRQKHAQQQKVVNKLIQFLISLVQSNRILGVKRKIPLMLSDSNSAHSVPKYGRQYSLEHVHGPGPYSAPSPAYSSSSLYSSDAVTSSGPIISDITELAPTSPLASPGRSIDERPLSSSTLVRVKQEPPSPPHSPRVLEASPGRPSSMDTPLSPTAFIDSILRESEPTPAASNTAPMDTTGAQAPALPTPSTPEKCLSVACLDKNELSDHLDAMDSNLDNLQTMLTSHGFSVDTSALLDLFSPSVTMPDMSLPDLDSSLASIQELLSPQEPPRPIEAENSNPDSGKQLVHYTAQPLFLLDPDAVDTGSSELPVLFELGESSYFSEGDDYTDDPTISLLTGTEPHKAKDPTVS

Cytochrome P450 3A4, sequence (P08684 whole entry): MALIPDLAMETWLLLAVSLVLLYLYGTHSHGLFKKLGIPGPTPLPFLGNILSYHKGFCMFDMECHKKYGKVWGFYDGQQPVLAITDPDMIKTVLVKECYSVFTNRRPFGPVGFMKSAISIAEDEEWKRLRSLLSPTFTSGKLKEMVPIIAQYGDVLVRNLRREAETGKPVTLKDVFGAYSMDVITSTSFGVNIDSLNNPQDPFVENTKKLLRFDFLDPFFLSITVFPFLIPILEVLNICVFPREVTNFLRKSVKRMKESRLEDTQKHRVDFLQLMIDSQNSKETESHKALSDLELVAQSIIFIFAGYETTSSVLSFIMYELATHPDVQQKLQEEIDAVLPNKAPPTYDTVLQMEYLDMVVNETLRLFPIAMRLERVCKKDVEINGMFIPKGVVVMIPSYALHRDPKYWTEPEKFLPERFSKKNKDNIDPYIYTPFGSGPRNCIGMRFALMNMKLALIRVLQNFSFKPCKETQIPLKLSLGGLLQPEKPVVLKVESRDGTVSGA
Peroxisome proliferator-activated receptor gamma/Nuclear receptor coactivator 1, sequence (P37231 whole entry): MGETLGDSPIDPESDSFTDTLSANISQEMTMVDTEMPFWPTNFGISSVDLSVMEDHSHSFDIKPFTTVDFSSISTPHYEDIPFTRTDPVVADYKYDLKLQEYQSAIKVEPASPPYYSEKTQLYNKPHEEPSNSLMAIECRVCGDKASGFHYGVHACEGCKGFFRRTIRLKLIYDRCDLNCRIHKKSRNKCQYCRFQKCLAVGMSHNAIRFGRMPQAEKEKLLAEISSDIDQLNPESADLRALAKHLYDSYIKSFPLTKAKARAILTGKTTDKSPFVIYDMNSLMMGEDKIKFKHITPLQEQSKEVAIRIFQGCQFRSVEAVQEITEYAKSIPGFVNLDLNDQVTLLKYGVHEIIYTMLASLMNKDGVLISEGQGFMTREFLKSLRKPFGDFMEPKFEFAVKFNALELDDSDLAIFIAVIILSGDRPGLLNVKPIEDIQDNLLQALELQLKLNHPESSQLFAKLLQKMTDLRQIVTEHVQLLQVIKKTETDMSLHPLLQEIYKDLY
Peroxisome proliferator-activated receptor gamma/Nuclear receptor coactivator 1, sequence (Q15788 whole entry, further chain): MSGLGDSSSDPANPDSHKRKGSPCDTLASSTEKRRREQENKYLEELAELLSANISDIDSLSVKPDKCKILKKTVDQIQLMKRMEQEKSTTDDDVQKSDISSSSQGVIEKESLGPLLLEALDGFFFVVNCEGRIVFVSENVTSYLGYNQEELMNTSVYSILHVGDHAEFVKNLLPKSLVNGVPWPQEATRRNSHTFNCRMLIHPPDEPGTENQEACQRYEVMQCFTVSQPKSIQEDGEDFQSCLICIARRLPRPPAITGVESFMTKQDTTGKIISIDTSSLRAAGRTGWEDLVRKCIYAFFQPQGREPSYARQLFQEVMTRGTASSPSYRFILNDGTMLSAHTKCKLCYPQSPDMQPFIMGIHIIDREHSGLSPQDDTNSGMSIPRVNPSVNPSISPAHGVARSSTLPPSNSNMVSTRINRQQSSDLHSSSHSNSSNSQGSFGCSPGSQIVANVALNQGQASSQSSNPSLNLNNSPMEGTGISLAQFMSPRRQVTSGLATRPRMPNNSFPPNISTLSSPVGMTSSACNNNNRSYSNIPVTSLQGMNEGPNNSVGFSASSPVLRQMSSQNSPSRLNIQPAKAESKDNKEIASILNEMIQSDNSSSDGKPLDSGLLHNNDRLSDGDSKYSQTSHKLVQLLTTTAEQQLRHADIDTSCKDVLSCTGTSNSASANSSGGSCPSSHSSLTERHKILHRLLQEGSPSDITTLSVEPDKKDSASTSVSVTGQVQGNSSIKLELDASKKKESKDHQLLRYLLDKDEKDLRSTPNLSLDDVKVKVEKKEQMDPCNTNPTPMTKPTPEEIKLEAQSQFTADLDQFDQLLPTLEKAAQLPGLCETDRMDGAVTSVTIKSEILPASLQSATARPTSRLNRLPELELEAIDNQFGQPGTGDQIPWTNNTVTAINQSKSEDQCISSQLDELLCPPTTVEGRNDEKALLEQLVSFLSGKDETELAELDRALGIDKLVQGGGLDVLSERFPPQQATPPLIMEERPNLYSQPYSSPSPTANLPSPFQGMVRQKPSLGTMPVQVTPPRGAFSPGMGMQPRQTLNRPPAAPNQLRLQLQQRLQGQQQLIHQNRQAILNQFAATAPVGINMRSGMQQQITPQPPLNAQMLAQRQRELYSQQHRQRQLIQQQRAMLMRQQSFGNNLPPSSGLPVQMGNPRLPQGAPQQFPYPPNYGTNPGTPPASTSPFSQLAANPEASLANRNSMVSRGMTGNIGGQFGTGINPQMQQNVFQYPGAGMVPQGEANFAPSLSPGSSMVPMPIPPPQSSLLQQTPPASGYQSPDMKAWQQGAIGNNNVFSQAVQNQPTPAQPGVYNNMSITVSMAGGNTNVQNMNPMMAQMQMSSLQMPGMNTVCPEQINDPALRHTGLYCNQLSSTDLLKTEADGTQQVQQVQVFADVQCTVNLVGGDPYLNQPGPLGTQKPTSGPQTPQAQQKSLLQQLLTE
Peroxisome proliferator-activated receptor gamma/Nuclear receptor coactivator 2, sequence (P37231 whole entry): as the sequence (P37231 whole entry) above
Peroxisome proliferator-activated receptor gamma/Nuclear receptor coactivator 2, sequence (Q15596 whole entry, further chain): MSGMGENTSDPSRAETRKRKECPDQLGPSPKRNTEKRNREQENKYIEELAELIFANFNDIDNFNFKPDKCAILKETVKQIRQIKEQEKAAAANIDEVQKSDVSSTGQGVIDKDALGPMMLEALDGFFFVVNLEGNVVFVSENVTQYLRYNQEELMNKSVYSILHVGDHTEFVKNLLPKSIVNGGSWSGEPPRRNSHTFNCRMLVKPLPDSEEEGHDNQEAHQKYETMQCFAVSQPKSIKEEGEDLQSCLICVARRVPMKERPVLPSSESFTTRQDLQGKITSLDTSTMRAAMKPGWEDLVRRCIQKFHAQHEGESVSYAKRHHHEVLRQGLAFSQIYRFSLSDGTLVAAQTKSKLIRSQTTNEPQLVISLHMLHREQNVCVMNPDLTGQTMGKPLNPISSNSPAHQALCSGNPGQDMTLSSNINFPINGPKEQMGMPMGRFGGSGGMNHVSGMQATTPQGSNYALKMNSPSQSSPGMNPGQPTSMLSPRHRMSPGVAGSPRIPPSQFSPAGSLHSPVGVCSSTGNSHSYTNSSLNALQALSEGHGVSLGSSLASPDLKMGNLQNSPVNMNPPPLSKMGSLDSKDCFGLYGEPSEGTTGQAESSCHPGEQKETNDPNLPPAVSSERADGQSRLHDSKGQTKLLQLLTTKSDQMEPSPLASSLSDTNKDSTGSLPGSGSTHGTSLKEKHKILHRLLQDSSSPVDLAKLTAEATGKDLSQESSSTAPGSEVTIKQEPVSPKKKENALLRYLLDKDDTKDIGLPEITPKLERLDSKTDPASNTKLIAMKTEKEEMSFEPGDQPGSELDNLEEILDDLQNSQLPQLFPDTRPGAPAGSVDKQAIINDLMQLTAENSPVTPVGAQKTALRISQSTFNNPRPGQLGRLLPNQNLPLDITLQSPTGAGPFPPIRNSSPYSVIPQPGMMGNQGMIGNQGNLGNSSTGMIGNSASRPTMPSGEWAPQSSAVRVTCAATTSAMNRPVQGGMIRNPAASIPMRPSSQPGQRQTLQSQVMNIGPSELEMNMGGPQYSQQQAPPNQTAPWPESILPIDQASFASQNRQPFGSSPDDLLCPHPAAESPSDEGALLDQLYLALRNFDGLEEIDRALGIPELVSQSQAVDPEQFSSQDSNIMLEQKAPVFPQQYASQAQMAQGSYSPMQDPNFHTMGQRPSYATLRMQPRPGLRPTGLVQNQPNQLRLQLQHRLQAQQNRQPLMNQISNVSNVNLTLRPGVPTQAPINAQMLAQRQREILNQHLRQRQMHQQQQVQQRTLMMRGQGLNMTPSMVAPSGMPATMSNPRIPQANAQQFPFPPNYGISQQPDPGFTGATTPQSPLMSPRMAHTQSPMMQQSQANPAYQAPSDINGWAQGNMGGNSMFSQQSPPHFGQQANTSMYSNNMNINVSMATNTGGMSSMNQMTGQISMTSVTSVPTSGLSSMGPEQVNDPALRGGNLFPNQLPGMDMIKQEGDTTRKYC
Nonstructural protein 1, sequence (Q194T2 whole entry): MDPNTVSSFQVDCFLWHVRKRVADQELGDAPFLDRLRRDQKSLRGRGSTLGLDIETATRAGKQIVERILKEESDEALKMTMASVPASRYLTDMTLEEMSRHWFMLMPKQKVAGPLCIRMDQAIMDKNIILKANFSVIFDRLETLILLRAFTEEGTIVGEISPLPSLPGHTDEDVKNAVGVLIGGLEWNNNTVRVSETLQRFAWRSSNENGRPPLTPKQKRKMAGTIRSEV
Trypsin, sequence (P00761 whole entry): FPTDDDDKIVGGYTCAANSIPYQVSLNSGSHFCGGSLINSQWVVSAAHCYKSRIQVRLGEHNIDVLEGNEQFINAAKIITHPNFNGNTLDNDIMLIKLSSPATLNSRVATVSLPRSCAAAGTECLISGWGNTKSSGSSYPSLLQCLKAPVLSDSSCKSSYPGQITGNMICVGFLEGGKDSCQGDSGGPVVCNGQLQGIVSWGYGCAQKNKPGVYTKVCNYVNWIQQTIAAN

## Cc1n[nH]c(C)c1CCCCOc1ccccc1
[1]
  EC50: 3.76 µM (active)

## Nc1nonc1-c1noc(CCCCCN2C(=O)c3ccccc3C2=O)n1
[2]
  IC50: 2.74 µM (not active)
[3]
  EC50: > 10 µM (not active)

## CN1CCN(C2CCN(Cc3ccc(O)c4ncccc34)CC2)CC1
[4]
  IC50: 5.84 µM (active)
[5]
  AC50: 1.11 µM (active)
[6]
  IC50: > 20 µM (inactive)

## CCCc1c(NC(=O)Nc2ccc(F)cc2)cnn1-c1ccccc1
[7]
  CC50: 21.3 µM (active)
[8]
  IC50: 4.51 µM (active)
[9]
  CC50: > 25 µM (active)
[10]
  IC50: 2.12 µM (active)

## CCOCc1cn(CC(=O)c2ccc(Cl)cc2)c(C)nc1=N
[1]
  EC50: 2.99 µM (active)

## O=C(Oc1ccccc1)Oc1ccc2c(c1)oc(=O)c1ccccc12
[11]
  EC50: > 79.4 µM (inactive)
[12]
  EC50: > 79.4 µM (not active)
[13]
  EC50: 64.1 µM (not active)

## COCCCn1c(SCC(=O)OC2CCCCC2)nnc1-c1ccco1
[3]
  EC50: > 50 µM (not active)

## Cn1c(NCc2ccccc2O)nc2ccccc21
[1]
  EC50: 7.5 µM (active)

## NS(=O)(=O)c1ccc(-c2ccc(/C=C3\C(=O)Nc4cc(Cl)ccc43)o2)cc1
[11]
  EC50: 19.7 µM (inactive)
[12]
  EC50: > 26.5 µM (not active)
[13]
  EC50: 9.96 µM (active)

## FC(F)(F)c1ccc(C2[C@H]3CN(Cc4ccc(-c5ccccc5)cc4)[C@H](c4ccccc4)C34CC2(c2ccccc2)C4)cc1 (stereo partly drawn)
[14]
  AC50: 25.1 µM (inconclusive)

## CCOCCCNC(=O)c1cc2c(=O)n3cccc(C)c3nc2n1C
[15]
  IC50: > 80 µM (inactive)

## Cc1nonc1NC(=O)OCCN1CCOC1=O
[16]
  AC50: inconclusive
[3]
  EC50: > 50 µM (not active)

## OC(COCC1CC=CCC1)Cn1cnc2ccccc21 (stereo not drawn)
[3]
  EC50: > 50 µM (not active)

## Cc1ccc2[nH]c3c(c2c1)CN(C(=O)CN1CCCc2ccccc21)CC3
[17]
  IC50: 69.6 µM (active)

## Cc1ccc(-c2csc(N3CCN(c4cc5c(cc4Cl)nc(C)n5CCN4CCCCC4)CC3)n2)cc1
[6]
  IC50: > 20 µM (inactive)

## O=C1C(Cc2c[nH]c3ccccc23)NC(=S)N1Cc1ccccc1 (stereo not drawn)
[18]
  AC50: 14.3 µM (active)

## COC(=O)N1C2(C=CC1(C)C(=O)NCc1ccc(N(C)C)cc1)CCCCC2 (stereo not drawn)
[14]
  AC50: 0.501 µM (inconclusive)

## O=C(NCCCN1CCCCC1)C1CCN(c2ncnc3c2nc2n3CCCCC2)CC1
[6]
  IC50: > 20 µM (inactive)

## COC(=O)C1=C(C)N(Cc2ccccc2)[C@]23O[C@](C(=O)OC)(C(=O)N2C1c1ccccc1)C(C(=O)OC)=C3C(=O)OC (stereo partly drawn)
[14]
  AC50: 3.16 µM (inconclusive)

## Nc1c2c(nc3ccccc13)N(c1ccccc1)CC2
[19]
  EC50: > 195 µM (not active)
[1]
  EC50: 1.88 µM (active)

## CCc1ccc(-c2cc(C(=O)N/N=C/c3ccccn3)[nH]n2)cc1
[6]
  IC50: > 20 µM (inactive)
